Source: patent US20200237738A1, “PHARMACEUTCAL COMPOSITION FOR PREVENTING OR TREATING CANCER, CONTAINING STREPTONIGRIN AND RAPAMYCIN AS ACTIVE INGREDIENTS” (MD BIOLAB CO., LTD., priority 2017, published 2020)

What was measured:
[1] = test system: renal cancer cell line (ACHN cells and CAKI-1 cells); test: Trypan blue live cell count, renal cancer cell line (cell line not distinguished); assay type: cell-based; conditions: 48 h, read-out: cell viability relative to untreated control
Experimental: Specifically, after ACHN cells which are a renal cancer cell (RCC) line and CAKI-1 cells (provided by the National Cancer Center, Korea) were each inoculated into an RPM1640 medium containing 10% FBS and cultured, and then further cultured for 48 hours after being treated with 10 nM rapamycin and/or 10 nM streptonigrin in combination or alone. After the culture, cells were stained by treating respective cells with 0.4% trypan blue, and live and dead cells were sorted and counted. For the number of counted cells, the ratio of the number of relative live cells was calculated based on the number of live cells of an untreated control which had not been treated with rapamycin and streptonigrin.
Specifically, the relative ratio of the number of live cells was calculated in the same manner as in Example <2-1>, using 5 μM of pazopanib and 2 nM of streptonigrin.

[2] = test system: CAKI-1 renal cancer cell line xenograft; test: CD31 immunohistochemistry of tumors in CAKI-1 xenograft mouse model; assay type: in vivo, mice
Experimental: Specifically, a mouse model was prepared by xenografting mice with a CAKI-1 cell line which is a renal cancer cell line. And then, the formation of a tumor was observed after administering streptonigrin to the mouse model at a dose of 0.1 mg/kg or 0.2 mg/kg, and breeding the mice. After the xenografting, a biopsy tissue sample was obtained by excising tumor sites, and the level of expression of CD31-positive cells, which are a blood vessel specific marker, was confirmed by immunohistochemically staining the sample.

[3] = test system: human umbilical vein endothelial cells (HUVECs); test: BrdUrd labeling assay (proliferation) in HUVECs; assay type: cell-based; conditions: compared to siCTL control
Experimental: Specifically, human umbilical vein endothelial cells (HUVECs) were inoculated into a medium and cultured, and then further cultured after the medium was treated with siRNA of siCTL or siTGase2 (siTG2) and VEGF as a vascular growth promoting factor. After cells treated with the siRNA and VEGF were cultured, the medium was again treated with bromodeoxyuridine (BudUrd), a BrdUrd labeling assay was performed. For quantification, BrdUrd-positive cells were counted among the cells grown on the medium. For the counted cells, the number of BrdUrd-positive cells in the siCTL-treated and VEGF-untreated groups was used as a reference, and the number of BrdUrd cells in each experimental group was obtained as a relative percentage.

[4] = test system: human umbilical vein endothelial cells (HUVECs); test: Migration of HUVECs; assay type: cell-based; conditions: compared to siCTL control
[5] = test system: human umbilical vein endothelial cells (HUVECs); test: Angiogenesis analysis (tube segments on Matrigel) in HUVECs; assay type: cell-based; conditions: compared to siCTL control
Experimental: At the same time, an angiogenesis analysis was also performed. Cells were allowed to adhere to the well surface and cultured by inoculating HUVEC cells into Matrigel-coated wells. Cells were further cultured by adding VEGF and each siRNA to the medium, and then tube segments formed were counted using an angiogenesis assay kit.

Molecule	viability at 0.01 µM [1]	number of CD31-positive cells with increasing dose ([2]; streptonigrin 0.1 mg/kg or 0.2 mg/kg)	level of CD31-positive cells relative to control ([2]; streptonigrin 0.2 mg/kg, tumor biopsy)	proliferation of cells (BrdUrd-positive cells) [3]	migration of cells [4]	angiogenesis degree (tube formation) [5]
CO[C@H]1C[C@@H]2CC[C@@H](C)[C@@](O)(O2)C(=O)C(=O)N2CCCC[C@H]2C(=O)O[C@H]([C@H](C)C[C@@H]2CC[C@@H](O)[C@H](OC)C2)CC(=O)[C@H](C)/C=C(\C)[C@@H](O)[C@@H](OC)C(=O)[C@H](C)C[C@H](C)/C=C/C=C/C=C/1C [rapamycin]	≥ 90%					
COC1=C(N)C(=O)c2nc(-c3nc(C(=O)O)c(C)c(-c4ccc(OC)c(OC)c4O)c3N)ccc2C1=O [streptonigrin]	≥ 65%	decreased	about 20%			
VEGF				sharply increased	sharply increased	sharply increased
